Source: ChEMBL document CHEMBL4118157, “Efficiency of newly prepared thiazole derivatives against some cutaneous fungi” (2018)
Converted amounts (≈) assume the structure as drawn.

Assays:
Candida albicans [1] = assay: Antifungal activity against Candida albicans after 48 hrs by broth microdilution method; format: functional
[2] = tested on: Trichophyton mentagrophytes; assay: Antifungal activity against Trichophyton mentagrophytes after 72 hrs by broth microdilution method; format: functional
Nannizzia gypsea [3] = assay: Antifungal activity against Microsporum gypseum after 72 hrs by broth microdilution method; format: functional
[4] = tested on: Trichophyton mentagrophytes; assay: Fungicidal activity against Trichophyton mentagrophytes measured after 96 hrs; format: functional
Candida albicans [5] = assay: Fungicidal activity against Candida albicans measured after 72 hrs; format: functional
Nannizzia gypsea [6] = assay: Fungicidal activity against Microsporum gypseum measured after 96 hrs; format: functional
Fungi [7] = assay: Inhibition of fungal keratinase activity at 0.1 to 10 mg/ml relative to control
Nannizzia gypsea [8] = assay: Inhibition of Microsporum gypseum keratinase activity at MIC incubated for 5 days under non-shaking condition and subsequent incubation for 5 days under shaking condition by UV-vis spectrophotometric analysis relative to control
Nannizzia gypsea [9] = assay: Inhibition of ergosterol biosynthesis in Microsporum gypseum at MIC by spectrophotometric method relative to control; format: functional
Candida albicans [10] = assay: Inhibition of ergosterol biosynthesis in Candida albicans at MIC by spectrophotometric method relative to control; format: functional
Candida albicans [11] = assay: Inhibition of Candida albicans keratinase activity at MIC incubated for 5 days under non-shaking condition and subsequent incubation for 5 days under shaking condition by UV-vis spectrophotometric analysis relative to control
[12] = tested on: Trichophyton mentagrophytes; assay: Inhibition of ergosterol biosynthesis in Trichophyton mentagrophytes at MIC by spectrophotometric method relative to control; format: functional
[13] = tested on: Trichophyton mentagrophytes; assay: Inhibition of Trichophyton mentagrophytes keratinase activity at MIC incubated for 5 days under non-shaking condition and subsequent incubation for 5 days under shaking condition by UV-vis spectrophotometric analysis relative to control
[14] = tested on: Trichophyton mentagrophytes; assay: Inhibition of Trichophyton mentagrophytes keratinase activity at 4 ppm incubated for 5 days under non-shaking condition and subsequent incubation for 5 days under shaking condition by UV-vis spectrophotometric analysis relative to control
Candida albicans [15] = assay: Inhibition of Candida albicans keratinase activity at 2 ppm incubated for 5 days under non-shaking condition and subsequent incubation for 5 days under shaking condition by UV-vis spectrophotometric analysis relative to control
Candida albicans [16] = assay: Antifungal activity against Candida albicans infected in guinea pig skin assessed as recovery from infection at 10 mg/g administered once daily via superficial route for 15 days measured after 30 days post last dose relative to control; format: functional
Nannizzia gypsea [17] = assay: Inhibition of Microsporum gypseum keratinase activity at 4 ppm incubated for 5 days under non-shaking condition and subsequent incubation for 5 days under shaking condition by UV-vis spectrophotometric analysis relative to control
Nannizzia gypsea [18] = assay: Antifungal activity against Microsporum gypseum infected in guinea pig skin assessed as recovery from infection at 10 mg/g administered once daily via superficial route for 15 days measured after 30 days post last dose relative to control; format: functional
[19] = tested on: Trichophyton mentagrophytes; assay: Antifungal activity against Trichophyton mentagrophytes infected in guinea pig skin assessed as recovery from infection at 10 mg/g administered once daily via superficial route for 15 days measured after 30 days post last dose relative to control; format: functional
[20] = tested on: Trichophyton mentagrophytes; assay: Inhibition of Trichophyton mentagrophytes keratinase activity at 16 ppm incubated for 5 days under non-shaking condition and subsequent incubation for 5 days under shaking condition by UV-vis spectrophotometric analysis relative to control
Nannizzia gypsea [21] = assay: Inhibition of Microsporum gypseum keratinase activity at 8 ppm incubated for 5 days under non-shaking condition and subsequent incubation for 5 days under shaking condition by UV-vis spectrophotometric analysis relative to control
Candida albicans [22] = assay: Inhibition of Candida albicans keratinase activity at 8 ppm incubated for 5 days under non-shaking condition and subsequent incubation for 5 days under shaking condition by UV-vis spectrophotometric analysis relative to control
Fungi [23] = assay: Inhibition of fungal keratinase activity at 10 mg/ml relative to control
Trichophyton terrestre = assay: Inhibition of Trichophyton terrestre keratinase activity at 10 ug/ml incubated for 5 days under non-shaking condition and subsequent incubation for 5 days under shaking condition by UV-vis spectrophotometric analysis relative to control
Trichophyton rubrum = assay: Inhibition of Trichophyton rubrum keratinase activity at 10 ug/ml incubated for 5 days under non-shaking condition and subsequent incubation for 5 days under shaking condition by UV-vis spectrophotometric analysis relative to control
Epidermophyton floccosum = assay: Inhibition of Epidermophyton floccosum keratinase activity at 10 ug/ml incubated for 5 days under non-shaking condition and subsequent incubation for 5 days under shaking condition by UV-vis spectrophotometric analysis relative to control
Nannizzia gypsea [24] = assay: Inhibition of Microsporum gypseum keratinase activity at 10 ug/ml incubated for 5 days under non-shaking condition and subsequent incubation for 5 days under shaking condition by UV-vis spectrophotometric analysis relative to control
Candida albicans [25] = assay: Antifungal activity against Candida albicans; format: functional
[26] = tested on: Trichophyton mentagrophytes; assay: Antifungal activity against Trichophyton mentagrophytes; format: functional

Structure (SMILES) | MIC (Candida albicans [1]) [mg/L] | MIC [2] [mg/L] | MIC (Nannizzia gypsea [3]) [mg/L] | MFC [4] [mg/L] | MFC (Candida albicans [5]) [mg/L] | MFC (Nannizzia gypsea [6]) [mg/L] | further results
Cc1nc(NN=C2CCN(C)CC2)sc1/N=N/c1cccc(Cl)c1 | 32 (≈ 88.2 µM) | 128 (≈ 353 µM) | 64 (≈ 176 µM) | > 256 | 128 (≈ 353 µM) | 256 (≈ 705 µM) | 
CN1CCC(=NNC2=NC(=O)/C(=N\Nc3ccc([N+](=O)[O-])cc3)S2)CC1 | 64 (≈ 170 µM) | 128 (≈ 341 µM) | 128 (≈ 341 µM) | > 256 | 256 (≈ 682 µM) | > 256 | 
Cc1nc(NN=C2CCN(C)CC2)sc1/N=N/c1ccccc1Cl | 32 (≈ 88.2 µM) | 64 (≈ 176 µM) | 64 (≈ 176 µM) | > 256 | 128 (≈ 353 µM) | 256 (≈ 705 µM) | 
N#C/C(=C1/SCC(c2ccccc2Cl)S1)n1ccnc1 (stereo not drawn) |  |  |  |  |  |  | inhibition (Fungi [7]): 40 to 70%
Cc1nc(NN=C2CCN(C)CC2)sc1/N=N/c1ccc([N+](=O)[O-])cc1 | 64 (≈ 171 µM) | 128 (≈ 343 µM) | 128 (≈ 343 µM) | > 256 | 256 (≈ 686 µM) | > 256 | inhibition (Nannizzia gypsea [8]): 10.1 to 31.4%; inhibition (INH) (Nannizzia gypsea [9]): 33.1%; inhibition (INH) (Candida albicans [10]): 28.5%; inhibition (Candida albicans [11]): 10.1 to 31.4%; inhibition (INH) [12]: 21.4%; inhibition [13]: 10.1 to 31.4%
Cc1ccc(/N=N/c2sc(NN=C3CCN(C)CC3)nc2C)cc1 | 16 (≈ 46.7 µM) | 32 (≈ 93.4 µM) | 32 (≈ 93.4 µM) | 256 (≈ 748 µM) | 64 (≈ 187 µM) | 128 (≈ 374 µM) | 
Cc1ccccc1/N=N/c1sc(NN=C2CCN(C)CC2)nc1C | 8 (≈ 23.4 µM) | 32 (≈ 93.4 µM) | 32 (≈ 93.4 µM) | 128 (≈ 374 µM) | 32 (≈ 93.4 µM) | 64 (≈ 187 µM) | 
Cc1nc(NN=C2CCN(C)CC2)sc1/N=N/c1ccc(Cl)cc1 | 16 (≈ 44.1 µM) | 16 (≈ 44.1 µM) | 16 (≈ 44.1 µM) | 128 (≈ 353 µM) | 32 (≈ 88.2 µM) | 128 (≈ 353 µM) | 
CN1CCC(=NNC2=NC(=O)/C(=N\Nc3ccccc3)S2)CC1 | 2 (≈ 6.05 µM) | 4 (≈ 12.1 µM) | 4 (≈ 12.1 µM) | 16 (≈ 48.4 µM) | 4 (≈ 12.1 µM) | 8 (≈ 24.2 µM) | inhibition (INH) (Nannizzia gypsea [9]): 86.4%; inhibition [14]: 91.4%; inhibition (Candida albicans [15]): 96%; inhibition (INH) (Candida albicans [10]): 73.3%; Activity (Candida albicans [16]): 100%; inhibition (INH) [12]: 74.3%; inhibition (Nannizzia gypsea [17]): 94%; Activity (Nannizzia gypsea [18]): 91%; Activity [19]: 87%
CN1CCC(=NNC2=NC(=O)/C(=N\Nc3ccc(Cl)cc3)S2)CC1 | 64 (≈ 175 µM) | 128 (≈ 351 µM) | 128 (≈ 351 µM) | > 256 | 128 (≈ 351 µM) | 256 (≈ 702 µM) | 
Cc1nc(NN=C2CCN(C)CC2)sc1/N=N/c1ccccc1 | 16 (≈ 48.7 µM) | 64 (≈ 195 µM) | 64 (≈ 195 µM) | 245 (≈ 746 µM) | 128 (≈ 390 µM) | 128 (≈ 390 µM) | inhibition (Nannizzia gypsea [8]): 33.4 to 46.3%; inhibition (Candida albicans [11]): 33.4 to 46.3%; inhibition [13]: 33.4 to 46.3%
CN1CCC(=NNc2nc(-c3ccccc3)c(/N=N/c3ccc(Cl)cc3)s2)CC1 | 4 (≈ 9.41 µM) | 8 (≈ 18.8 µM) | 4 (≈ 9.41 µM) | 32 (≈ 75.3 µM) | 8 (≈ 18.8 µM) | 16 (≈ 37.7 µM) | 
COc1ccc(/N=N/c2sc(NN=C3CCN(C)CC3)nc2C)cc1 | 64 (≈ 179 µM) | 128 (≈ 357 µM) | 128 (≈ 357 µM) | > 256 | 128 (≈ 357 µM) | 256 (≈ 714 µM) | 
CN1CCC(=NNc2nc(-c3ccccc3)c(/N=N/c3ccccc3)s2)CC1 | 2 (≈ 5.12 µM) | 4 (≈ 10.2 µM) | 4 (≈ 10.2 µM) | 16 (≈ 41 µM) | 4 (≈ 10.2 µM) | 16 (≈ 41 µM) | inhibition [14]: 77 to 94%; inhibition (Candida albicans [15]): 77 to 94%; inhibition (Nannizzia gypsea [17]): 77 to 94%
Cc1ccc(/N=N/c2sc(NN=C3CCN(C)CC3)nc2-c2ccccc2)cc1 | 2 (≈ 4.94 µM) | 4 (≈ 9.89 µM) | 4 (≈ 9.89 µM) | 16 (≈ 39.6 µM) | 4 (≈ 9.89 µM) | 8 (≈ 19.8 µM) | 
Cc1nc(NN=C2CCN(C)CC2)sc1/N=N/c1ccc(Cl)cc1Cl | 16 (≈ 40.3 µM) | 64 (≈ 161 µM) | 64 (≈ 161 µM) | > 256 | 128 (≈ 322 µM) | 128 (≈ 322 µM) | 
CN1CCC(=NNc2nc(-c3ccccc3)c(/N=N/c3ccc([N+](=O)[O-])cc3)s2)CC1 | 8 (≈ 18.4 µM) | 16 (≈ 36.7 µM) | 8 (≈ 18.4 µM) | 32 (≈ 73.5 µM) | 16 (≈ 36.7 µM) | 32 (≈ 73.5 µM) | inhibition [20]: 66.1 to 92.2%; inhibition (Nannizzia gypsea [21]): 66.1 to 92.2%; inhibition (Candida albicans [22]): 66.1 to 92.2%
c1ccc(-c2ccc(C(c3ccccc3)n3ccnc3)cc2)cc1 (stereo not drawn) |  |  |  |  |  |  | inhibition (Fungi [23]): 50%
COc1ccc(/N=N/c2sc(NN=C3CCN(C)CC3)nc2-c2ccccc2)cc1 | 2 (≈ 4.76 µM) | 4 (≈ 9.51 µM) | 4 (≈ 9.51 µM) | 32 (≈ 76.1 µM) | 4 (≈ 9.51 µM) | 8 (≈ 19 µM) | inhibition [14]: 88.8 to 95%; inhibition (Candida albicans [15]): 88.8 to 95%; Activity (Candida albicans [16]): 100%; inhibition (Nannizzia gypsea [17]): 88.8 to 95%; Activity (Nannizzia gypsea [18]): 92%; Activity [19]: 85%
CN(C/C=C/C#CC(C)(C)C)Cc1cccc2ccccc12 |  |  |  |  |  |  | inhibition (Trichophyton terrestre): 66%; inhibition (Trichophyton rubrum): 51.7%; inhibition (Epidermophyton floccosum): 72.3%; inhibition (Nannizzia gypsea [24]): 71.9%
OC(Cn1cncn1)(Cn1cncn1)c1ccc(F)cc1F [FLUCONAZOLE] | 8 (≈ 26.1 µM) | 16 (≈ 52.2 µM) | 8 (≈ 26.1 µM) | 64 (≈ 209 µM) | 32 (≈ 104 µM) | 64 (≈ 209 µM) | inhibition (Nannizzia gypsea [8]): 61.3 to 72.9%; MIC (Candida albicans [25]): 0.34 mg/L (≈ 1.11 µM); MIC [26]: 23.9 mg/L (≈ 78 µM); inhibition (Candida albicans [11]): 61.3 to 72.9%; Activity (Candida albicans [16]): 97%; Activity (Nannizzia gypsea [18]): 84%; inhibition [13]: 61.3 to 72.9%; Activity [19]: 77%
CN1CCC(=NNC2=NC(=O)/C(=N\Nc3cccc(Cl)c3)S2)CC1 | 32 (≈ 87.7 µM) | 128 (≈ 351 µM) | 64 (≈ 175 µM) | > 256 | 128 (≈ 351 µM) | 256 (≈ 702 µM) | 
